Test results reported in patent US6870028B1 (priority 1995, dated 2005).
In brackets after ≈: the same amount, converted by molar mass. Read-outs that look alike come from different tables or passages of the source.

Tests used:
human breast cancer MCF7 = experiment: in vitro cytotoxicity versus human breast cancer MCF7; assay type: cell-based
Protocol: (§1) Coupling of the peptide A-B to amino acid moiety of C (5) was carried out in a similar way. [drawing 25] [drawing 26] [drawing 27] Testing of Compounds • 1. The cytotoxicity of compounds described herein have been tested as described in J. Immunol. Methods, 65, 55-63, 1983 and the results are provided in Table 4 below, wherein P388 refers to in vitro test versus murine leukaemia P388, U373 refers to in vitro human glioblastoma/astrocytoma U373, HEY refers to in vitro human ovarian carcinoma HEY, MCF7 refers to in vitro human breast cancer MCF7. • 2.

[1] = system: human mammary carcinoma MCF7 cells; experiment: antimitotic activity, percentage of mitotic cells in chromosome spreads; assay type: cell-based; details: for IC50: Homo sapiens; for IC50 / antimitotic activity, in words: 20 h treatment
Protocol: • 3. Compounds described herein were comparatively tested for their antimitotic activity against human mammary carcinoma MCF7 cells.
MCF7 cells were grown as a monolayer in RPMI supplemented with 15% fetal calf serum and antibiotics at 37° C. in humidified 10% CO2. All compounds were dissolved in dimethyl sulfoxide except for vinblastine (a known drug) which was a 1 mg/ml solution in physiological saline. Exponentially growing MCF7 cells were treated with different drug concentrations for 20 h, prepared for chromosome spreads, and the percentage of mitotic cells determined by fluorescence microscopy. Hemiasterlin, Hemiasterlin A and modified compounds were very potent antimitotic agents, with IC50 values of 0.3 nM and 3 nM respectively.

[2] = system: human ovarian carcinoma HEY; experiment: in vitro cytotoxicity versus human ovarian carcinoma HEY; assay type: cell-based
Protocol: as §1

[3] = system: human glioblastoma/astrocytoma U373; experiment: in vitro cytotoxicity versus human glioblastoma/astrocytoma U373; assay type: cell-based; details: for IC50: U373 MG
Protocol: as §1

MCF7 cells = experiment: morphology of mitotic spindles by indirect immunofluorescence (β-tubulin antibody, bisbenzimide); assay type: cell-based, human
Text: The effect of Hemiasterlin and Hemiasterlin A on the morphology of their mitotic spindles was examined by indirect immunofluorescence using a monoclonal antibody to β-tubulin and the distribution of their chromosomes using the fluorescent DNA dye bisbenzimide.

murine leukaemia P388 = experiment: in vitro cytotoxicity versus murine leukaemia P388; assay type: cell-based; details: Mus musculus
Protocol: as §1

P388 leukaemia cells = experiment: in vivo P388 leukaemia model in mice
[4] = read-out: IC50 Values cell mitosis

With `CN[C@H](C(=O)N[C@H](C(=O)N(C)[C@H](/C=C(\C)C(=O)OC)C(C)C)C(C)(C)C)C(C)(C)c1cn(C)c2ccccc12` the IC50 (human breast cancer MCF7) was 5.4 ng/mL (≈ 9.99 nM) and the IC50 [1, 4] was 0.216 ng/mL.

In the case of `C=C1C[C@H](C)C(=O)N[C@@H](C)C(=O)N(C)[C@H](Cc2ccc(O)c(I)c2)C(=O)N[C@@H](C)C(=O)O[C@@H](C)C[C@@H](C)C1=O` [Compound 1, Geodiamolide G], the “IC50 Values HEY” value [2] is reported as 8600 ng/mL (≈ 13100 nM) and the “IC50 Values U373” value [3] is reported as 7700 ng/mL (≈ 11700 nM).

For `CN[C@H](C(=O)N[C@H](C(=O)N(C)[C@H](CC(C)C(=O)O)C(C)C)C(C)(C)C)C(C)(C)c1cn(C)c2ccccc12` (stereo partly shown), the IC50 [1, 4] was 1.06 ng/mL.

For `CC[C@]1(O)C[C@@H]2CN(CCc3c([nH]c4ccccc34)[C@@](C(=O)OC)(c3cc4c(cc3OC)N(C)[C@H]3[C@@](O)(C(=O)OC)[C@H](OC(C)=O)[C@]5(CC)C=CCN6CC[C@]43[C@@H]65)C2)C1` [Vinblastine], the mitotic spindle morphology (MCF7 cells; half-maximal concentrations) was “produced the same types of abnormal spindle as hemiasterlin A” and the effect on microtubules (MCF7 cells; high concentrations) was “microtubule depolymerisation in mitotic cells”.

`CCOC(=O)/C(C)=C/[C@H](C(C)C)N(C)C(=O)[C@@H](NC(=O)[C@@H](NC)C(C)(C)c1cn(C)c2ccccc12)C(C)C` was tested, and the IC50 (human breast cancer MCF7) was 100 ng/mL (≈ 185 nM).

`COC(=O)Nc1nc2ccc(C(=O)c3cccs3)cc2[nH]1` [Nocodazole] was tested, and the mitotic spindle morphology (MCF7 cells; half-maximal concentrations) was “produced the same types of abnormal spindle as hemiasterlin A” and the effect on microtubules (MCF7 cells; high concentrations) was “microtubule depolymerisation in mitotic cells”.

In the case of `CN[C@H](C(=O)N[C@H](C(=O)N(C)[C@H](/C=C(\C)C(=O)O)C(C)C)C(C)(C)C)C(C)(C)c1c[nH]c2ccccc12` [Compound 2, Hemiasterlin A], the IC50 [2] is reported as 7.6 ng/mL (≈ 14.8 nM), the IC50 (human breast cancer MCF7) is reported as 1.54 ng/mL (≈ 3 nM) and the mitotic spindle morphology (MCF7 cells; at 2 nM) is reported as “no completely normal spindles were seen”. The effect on microtubules (MCF7 cells; at 10 nM) was “caused microtubule depolymerisation in mitotic cells”, the “lowest concentration causing maximal mitotic arrest” value [1] was 10 nM and the “antimitotic activity, in words” value [1] was “more potent than Taxol, Vinblastine and Nocodazole”. It also gave an IC50 [1, 4] of 1.02 ng/mL, an IC50 ([1]; read-out: antimitotic IC50) of 3 nM and an IC50 (murine leukaemia P388) of 0.00171 ng/mL (≈ 0.00334 nM). The IC50 [3] was 1.5 ng/mL (≈ 2.93 nM).

`CC(=O)O[C@H]1C(=O)[C@@]2(C)[C@H]([C@H](OC(=O)c3ccccc3)[C@]3(O)C[C@H](OC(=O)[C@H](O)[C@@H](NC(=O)c4ccccc4)c4ccccc4)C(C)=C1C3(C)C)[C@]1(OC(C)=O)CO[C@@H]1C[C@@H]2O` [Taxol] was tested, and the mitotic spindle morphology (MCF7 cells; half-maximal concentrations) was “produced the same types of abnormal spindle as hemiasterlin A” and the effect on microtubules (MCF7 cells; high concentrations) was “causing bundling of cytoplasmic microtubules in interphase cells and very dense multiple asters in mitotic cells”.

In the case of `CN[C@H](C(=O)N[C@H](C(=O)N(C)[C@H](/C=C(\C)C(=O)N[C@@H](CCCNC(=N)N)C(=O)O)C(C)C)C(C)(C)C)C(C)(C)c1c[nH]c2ccccc12`, the IC50 [2] is reported as 190 ng/mL (≈ 284 nM), the IC50 (human breast cancer MCF7) is reported as 6800 ng/mL (≈ 10200 nM) and the IC50 (murine leukaemia P388) is reported as 7.3 ng/mL (≈ 10.9 nM). The IC50 [3] was 270 ng/mL (≈ 404 nM).

In the case of `CN[C@H](C(=O)N[C@H](C(=O)N(C)[C@H](/C=C(\C)C(=O)O)C(C)C)C(C)C)C(C)(C)c1c[nH]c2ccccc12` [Compound 3, Hemiasterlin B], the IC50 [2] is reported as 16 ng/mL (≈ 32.1 nM), the IC50 (human breast cancer MCF7) is reported as 15 ng/mL (≈ 30.1 nM) and the IC50 [1, 4] is reported as 9.96 ng/mL. It also gave an IC50 (murine leukaemia P388) of 7 ng/mL (≈ 14 nM).

In the case of `CN[C@H](C(=O)N[C@H](C(=O)N(C)[C@H](/C=C(\C)C(=O)O)C(C)C)C(C)(C)C)C(C)(C)c1cn(C)c2ccccc12` [Compound A, Hemiasterlin], the IC50 [2] is reported as 1.4 ng/mL (≈ 2.66 nM), the “in vivo tests, result in words” value (P388 leukaemia cells; in vivo tests per NIH Publication No. 84-2635) is reported as “cytotoxic” and the long term survivors (P388 leukaemia cells; mice injected with 1×10^6 P388 leukaemia cells, 5 daily doses of 0.45 μg) is reported as “several long term survivors”. The “%TC” value (P388 leukaemia cells; mice injected with 1×10^6 P388 leukaemia cells, 5 daily doses of 0.45 μg begun 24 hours after implantation) was 223%, the IC50 (human breast cancer MCF7) was 0.158 ng/mL (≈ 0.3 nM) and the “antimitotic activity, in words” value [1] was “more potent than Taxol, Vinblastine and Nocodazole”. It also gave an IC50 [1, 4] of 0.158 ng/mL, an IC50 ([1]; read-out: antimitotic IC50) of 0.3 nM and an IC50 (murine leukaemia P388) of 0.0457 ng/mL (≈ 0.0868 nM). The IC50 [3] was 12 ng/mL (≈ 22.8 nM).
